Consider 12 compounds from PubChem BioAssay AID624167 (Sanford-Burnham Center for Chemical Genomics, 2012).

Experiment [1] in a line: inhibition of PEG-3 promoter-driven reporter – cell-based, HeLa, luciferase, CREF/GAPDH counter-screen panel, dose response (AID 624167). Particulars: CREF/GAPDH counter-screens; GAPDH; mean of runs. (In general: The purpose of a counterscreen is to sort out artefacts and off-target activity.)
The next experiment relates to GAPDH. The description is as above. Particulars: CREF/GAPDH counter-screens.
For experiment [2], the target named is PEG-3 (UniProt Q6IN02). Described as above. The conditions noted are these: HeLa PEG-Prom luciferase reporter, overnight, CREF/GAPDH counter-screens, mean of runs. (Reporter assays use an easily measured gene product as a stand-in for the process of interest.)
Experiment [3] has as its system PEG-3. Described as above. The conditions noted are these: HeLa PEG-Prom luciferase reporter, overnight, CREF/GAPDH counter-screens.
A further experiment relates to Rat fibroblasts (CREF). The description is as above. The conditions noted are these: CREF/GAPDH counter-screens.
[4] abbreviates: run 1, dose range 1, individual replicate IC50 per panel.
Where [5] appears, read: run 2, dose range 1, individual replicate IC50 per panel.

Molecules are shown by their SMILES. The source made the active and inactive calls.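 Rule for the calls: active = mean IC50 for reducing PEG3 promoter reporter signal at or below a set limit, with IC50 above the limit in both counter screens; inactive = the rest, including counter screen hits.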

Chain of PEG-3 (UniProt Q6IN02) (Q6IN02 whole entry, looked up): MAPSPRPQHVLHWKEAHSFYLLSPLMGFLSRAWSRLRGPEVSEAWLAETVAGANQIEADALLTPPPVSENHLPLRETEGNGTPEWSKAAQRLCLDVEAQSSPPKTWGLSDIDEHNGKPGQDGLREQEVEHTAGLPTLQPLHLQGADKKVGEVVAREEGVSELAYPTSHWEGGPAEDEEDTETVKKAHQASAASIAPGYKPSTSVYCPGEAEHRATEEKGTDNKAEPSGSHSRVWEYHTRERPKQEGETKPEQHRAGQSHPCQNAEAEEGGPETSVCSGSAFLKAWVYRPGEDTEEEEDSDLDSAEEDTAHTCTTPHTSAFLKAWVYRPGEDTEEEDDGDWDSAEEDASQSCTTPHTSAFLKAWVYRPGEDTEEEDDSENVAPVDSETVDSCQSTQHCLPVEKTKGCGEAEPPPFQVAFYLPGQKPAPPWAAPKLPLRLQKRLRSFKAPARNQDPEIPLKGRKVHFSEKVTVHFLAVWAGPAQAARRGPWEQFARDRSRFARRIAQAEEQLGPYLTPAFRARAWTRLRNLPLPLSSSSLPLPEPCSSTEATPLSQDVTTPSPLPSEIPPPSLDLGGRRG

For `C=CCc1cccc(/C=N/NC(=O)C(C)Nc2cccc(C)c2)c1O` (stereo not drawn), the IC50 in experiment [1] is > 100 µM (inactive); with GAPDH (setting [4]), above 100 µM; in the experiment with GAPDH (setting [5]), above 100 µM; at PEG-3 [2], 7.04 µM; in the experiment on PEG-3 [3] (setting [4]), 12.2 µM; with PEG-3 [3] (setting [5]) it was 1.89 µM. Moreover, the figures for the IC50 in the experiment with Rat fibroblasts (CREF) (mean of runs), with Rat fibroblasts (CREF) (setting [4]) and in the experiment on Rat fibroblasts (CREF) (setting [5]) were > 100 µM (inactive), above 100 µM and above 100 µM, respectively.

As to `CCc1ccc(/C=C2\SC(=S)N(CCCC(=O)Nc3ccccn3)C2=O)cc1`, the IC50 in experiment [1] is 27.8 µM; with GAPDH (setting [4]), 15.6 µM; in the experiment on GAPDH (setting [5]) it was 40.1 µM; at PEG-3 [2], 4.03 µM; with PEG-3 [3] (setting [4]), 5.21 µM; in the experiment on PEG-3 [3] (setting [5]), 2.85 µM. For the same compound, the results for the IC50 in the experiment on Rat fibroblasts (CREF) (mean of runs), in the experiment on Rat fibroblasts (CREF) (setting [4]) and in the experiment with Rat fibroblasts (CREF) (setting [5]) were 50.2 µM (inactive), above 100 µM and 0.313 µM, respectively.

For `Oc1[nH]c2ccc(Br)cc2c1N=NC(=S)N1CCOCC1`, the half-maximal inhibitory concentration (IC50) in experiment [1] was 13.8 µM; in the experiment on GAPDH (setting [4]) it was 18.8 µM; with GAPDH (setting [5]), 8.78 µM; on PEG-3 [2], 1.07 µM; with PEG-3 [3] (setting [4]) it was 1.25 µM; in the experiment on PEG-3 [3] (setting [5]) it was 0.885 µM. Further, the IC50 in the experiment on Rat fibroblasts (CREF) (mean of runs) was 50.3 µM (inactive); in the experiment on Rat fibroblasts (CREF) (setting [4]) it was above 100 µM; in the experiment on Rat fibroblasts (CREF) (setting [5]), 0.611 µM.

Turning to `CCCCC(=O)NC(c1ccccc1OC)c1ccc2cccnc2c1O` (stereo not drawn), the IC50 entry in experiment [1] was “inactive”. For the same compound, the 50% inhibitory concentration (IC50) in the experiment on GAPDH (setting [4]) is 36.5 µM; in the experiment on GAPDH (setting [5]), above 100 µM; at PEG-3 [2] it was 10.6 µM; in the experiment with PEG-3 [3] (setting [4]), 3.35 µM; with PEG-3 [3] (setting [5]) it was 17.8 µM; in the experiment on Rat fibroblasts (CREF) (mean of runs) it was > 100 µM (inactive). Also, the concentration for half-maximal inhibition (IC50) with Rat fibroblasts (CREF) (setting [4]) and in the experiment on Rat fibroblasts (CREF) (setting [5]) was above 100 µM each time.

Turning to `CC1=NOC(=O)/C1=C\c1ccc(-c2ccccc2Br)o1`, the IC50 is 18.3 µM in experiment [1]; 16.9 µM in the experiment with GAPDH (setting [4]); 19.7 µM in the experiment with GAPDH (setting [5]); 10.7 µM on PEG-3 [2]; 11.3 µM in the experiment with PEG-3 [3] (setting [4]); 10.1 µM with PEG-3 [3] (setting [5]). For the same compound, the half-maximal inhibitory concentration (IC50) in the experiment on Rat fibroblasts (CREF) (mean of runs) was 50 µM; with Rat fibroblasts (CREF) (setting [4]) it was 24.6 µM; with Rat fibroblasts (CREF) (setting [5]), 75.3 µM.

With `CCc1ccn2cc(-c3ccc4c(c3)OCO4)nc2c1`, the half-inhibitory concentration (IC50) was 6.32 µM in experiment [1]; 3.75 µM in the experiment on GAPDH (setting [4]); 8.89 µM with GAPDH (setting [5]); 7.2 µM on PEG-3 [2]; 1.97 µM in the experiment with PEG-3 [3] (setting [4]); 12.4 µM in the experiment on PEG-3 [3] (setting [5]). Moreover, the IC50 was 50.4 µM (inactive) with Rat fibroblasts (CREF) (mean of runs), 0.748 µM with Rat fibroblasts (CREF) (setting [4]) and above 100 µM with Rat fibroblasts (CREF) (setting [5]).

In the case of `CCC(c1ccc(O)c(O)c1)C(CC)c1ccc(O)c(O)c1` (stereo not drawn), the IC50 entry in experiment [1] is “inactive”. In addition, the IC50 in the experiment with GAPDH (setting [4]) was 35.6 µM; with GAPDH (setting [5]) it was 33.7 µM; at PEG-3 [2], 9.94 µM; in the experiment with PEG-3 [3] (setting [4]) it was 14.2 µM; with PEG-3 [3] (setting [5]), 5.63 µM; with Rat fibroblasts (CREF) (mean of runs), 19.9 µM. Moreover, the IC50 in the experiment with Rat fibroblasts (CREF) (setting [4]) was 23 µM; in the experiment with Rat fibroblasts (CREF) (setting [5]), 16.7 µM.

Regarding `CCCCCCCn1c(=N)n(CC(=O)c2ccco2)c2ccccc21`, the IC50 entry (in experiment [1]; on PEG-3 [2]) was “inactive” in each case. Also, the 50% inhibitory concentration (IC50) was 27 µM in the experiment on GAPDH (setting [4]); 35 µM in the experiment with GAPDH (setting [5]); 0.395 µM with PEG-3 [3] (setting [4]); above 100 µM in the experiment on PEG-3 [3] (setting [5]); 30.7 µM with Rat fibroblasts (CREF) (mean of runs); 29.2 µM in the experiment on Rat fibroblasts (CREF) (setting [4]). In the experiment with Rat fibroblasts (CREF) (setting [5]), the half-maximal inhibitory concentration (IC50) is 32.1 µM.

For `O=c1c2ccccc2sc2nc(CCl)nn12`, the concentration for half-maximal inhibition (IC50) in experiment [1] is 11.2 µM; in the experiment on GAPDH (setting [4]), 11.9 µM; in the experiment on GAPDH (setting [5]) it was 10.6 µM; on PEG-3 [2], 9.36 µM; in the experiment with PEG-3 [3] (setting [4]) it was 9.23 µM; in the experiment with PEG-3 [3] (setting [5]), 9.49 µM. For the same compound, the IC50 in the experiment with Rat fibroblasts (CREF) (mean of runs) was > 100 µM (inactive); with Rat fibroblasts (CREF) (setting [4]), above 100 µM; in the experiment with Rat fibroblasts (CREF) (setting [5]) it was above 100 µM.

Turning to `O=C(N/N=C/c1ccc(Cl)c([N+](=O)[O-])c1)c1cc(-c2ccc3c4c(cccc24)CC3)n[nH]1`, the IC50 is 23 µM in experiment [1]; 22.8 µM in the experiment on GAPDH (setting [4]); 23.2 µM with GAPDH (setting [5]); 8.14 µM on PEG-3 [2]; 11.2 µM in the experiment on PEG-3 [3] (setting [4]); 5.1 µM in the experiment on PEG-3 [3] (setting [5]). Moreover, the IC50 in the experiment on Rat fibroblasts (CREF) (mean of runs) was > 100 µM (inactive); in the experiment with Rat fibroblasts (CREF) (setting [4]) it was above 100 µM; in the experiment on Rat fibroblasts (CREF) (setting [5]), above 100 µM.

Turning to `CS(=O)(=O)Nc1cccc(NC(=O)C2Cc3c(-c4cccc(F)c4)ccnc3O2)c1` (stereo not drawn), in experiment [1], the IC50 entry was “inactive”. The IC50 in the experiment with GAPDH (setting [4]) was above 100 µM; in the experiment on GAPDH (setting [5]), 44.6 µM; on PEG-3 [2], 2.87 µM; with PEG-3 [3] (setting [4]), 3.11 µM; in the experiment on PEG-3 [3] (setting [5]) it was 2.62 µM; in the experiment with Rat fibroblasts (CREF) (mean of runs) it was > 100 µM (inactive). The IC50 in the experiment on Rat fibroblasts (CREF) (setting [4]) and with Rat fibroblasts (CREF) (setting [5]) was above 100 µM throughout.

As for `COc1cc(C(=O)N/N=C(\c2ccccc2)c2ccccn2)cc(OC)c1OC`, the IC50 in experiment [1] is > 100 µM (inactive); in the experiment on GAPDH (setting [4]), above 100 µM; in the experiment with GAPDH (setting [5]), above 100 µM; on PEG-3 [2], 2.9 µM; with PEG-3 [3] (setting [4]) it was 3.09 µM; in the experiment with PEG-3 [3] (setting [5]) it was 2.71 µM. Besides, the IC50 in the experiment with Rat fibroblasts (CREF) (mean of runs) is 58.4 µM (inactive); in the experiment with Rat fibroblasts (CREF) (setting [4]), 44.9 µM; with Rat fibroblasts (CREF) (setting [5]), 72 µM.

Broadly, the IC50 is the concentration that inhibits the measured activity by half.
